≈ marks a conversion by molar mass, not a printed value. Where “and” joins values, the source holds several entries; their conditions need not be identical. Identical values can stand only once.
Key:
[1] = tested on: variety of cancers including small cell lung cancer, non-lymphocytic leukemia, and nonseminomatous testicular cancer; details: AMA Drug Evaluations, 5th Edition, 1983; cited from earlier work
[2] = tested on: HCT-116 human colon tumor cell line; assay: in vitro cytotoxicity assay, HCT-116; format: cell-based; details: 50% inhibition of cell growth; etoposide values (in parentheses) from the same run
Method: (§1) The test data involves a cytotoxicity assay versus various murine and human tumors, and in vivo evaluation against P-388 leukemia and B16 melanoma in mice.
(§2) The in vitro cytotoxicity assay involved growing various mammalian tumor cells, including human tumor cells, on microtitre plates employing established tissue culture methods. The concentration of each compound required to inhibit cell growth by 50% (IC50) was then determined by a four-fold serial dilution technique. The validity of the method has been supported by a report published in the "Proceedings of the American Association for Cancer Research", Vol. 25, 328, p. 1891 (1984). Tumor cells of the following types were employed for each compound tested: B16-F10 murine melanoma; Moser human colon; M109 murine lung; and three human colon tumor cell lines namely HCT-116, HCT-VM, and HCT-VP, the latter two being resistant to teniposide (VM) and etoposide (VP). A wide range of IC50 values was observed, and quantitative comparisons amongst test compounds or against the etoposide control values were not possible.

[3] = tested on: HCT-VM human colon tumor cell line; assay: in vitro cytotoxicity assay, HCT/VM (teniposide resistant); format: cell-based; details: 50% inhibition of cell growth; etoposide values (in parentheses) from the same run
Method: as §1, §2

[4] = tested on: HCT-VP human colon tumor cell line; assay: in vitro cytotoxicity assay, HCT/VP (etoposide resistant); format: cell-based; details: 50% inhibition of cell growth; etoposide values (in parentheses) from the same run
Method: as §1, §2

[5] = tested on: Moser human colon; assay: in vitro cytotoxicity assay, Moser; format: cell-based; details: 50% inhibition of cell growth; etoposide values (in parentheses) from the same run
Method: as §1, §2

[6] = tested on: P-388 murine leukemia; assay: P-388 murine leukemia, in vivo antitumor activity; parameters: species or system CDF1 female mice; Average Weight Change: unit: g; details: for Average Weight Change / Maximum Effect % T/C: P-388, i.p.; for effectiveness relative to etoposide (% T/C): P-388, days 5 and 8 protocol
Method: The test protocol involved CDF1 female mice implanted intraperitoneally with a tumor inoculum of 10^6 ascites cells of P-388 murine leukemia and treated with various doses of a test compound, or with etoposide. The compounds were administered by intraperitoneal injection on various schedules. Groups of four mice were used for each dosage schedule and amount. A group of ten saline treated control mice was included in each series of experiments, and etoposide treated groups of six were included as a positive control. Thirty one, 47, and 49 day protocols were employed with the mean survival time in days being determined for each group of mice and the number of survivors at the end of the period being noted. The mice were weighed before treatment and again on day 5 or day 6. Mice weighing 20 grams each were employed and a loss in weight of up to approximately 2 grams was not considered excessive. The results are arranged in Table II and were determined in terms of % T/C which is the ratio of the mean survival time of the treated group to the mean survival time of the saline treated control group times 100. The saline treated control animals usually died within nine days. The "maximum effect" in the table is expressed as % T/C and the dose giving that effect is reported. Two different dosage regimens were employed. In one, the first dose of test drug was given on Day 1, the day of tumor inoculation, and second was given on Day 5. In the other, the first dose of test drug was given on Day 5 and a second dose on Day 8. According to the latter protocol, the etoposide control % T/C values are lower than according to the former protocol indicating a more stringent test regimen.

[7] = tested on: B16 melanoma; assay: B16 melanoma, in vivo antitumor activity; parameters: species or system BDF1 female mice; details: for % T/C: B16 melanoma s.c.
[8] = tested on: B16-F10 murine melanoma; assay: in vitro cytotoxicity assay, B16-F10; format: cell-based; details: 50% inhibition of cell growth, etoposide values (in parentheses) from the same run
Method: as §1, §2

[9] = tested on: M109 murine lung; assay: in vitro cytotoxicity assay, M109; format: cell-based; details: 50% inhibition of cell growth; etoposide values (in parentheses) from the same run
Method: as §1, §2

[10] = 120 mg/kg, treatment days 1 and 5
[11] = 200 mg/kg, treatment days 5 and 8
[12] = 160 mg/kg, treatment days 5 and 8
[13] = 40 mg/kg, treatment days 1 and 5
[14] = 60 mg/kg, treatment days 1 and 5
[15] = 60 mg/kg, treatment days 5 and 8

COc1cc([C@@H]2c3cc4c(cc3[C@@H](O[C@@H]3O[C@@H]5CO[C@@H](c6cccs6)O[C@H]5[C@H](O)[C@H]3O)[C@H]3COC(=O)[C@H]23)OCO4)cc(OC)c1O [Teniposide]
activity in the treatment of cancers [1]: active

CCP1(CC)(CC)Oc2cc([C@@H]3c4cc5c(cc4[C@@H](O[C@@H]4O[C@@H]6CO[C@@H](C)O[C@H]6[C@H](O)[C@H]4O)[C@H]4COC(=O)[C@H]34)OCO5)cc(OC)c2O1 [Example 1, ETOPOSIDE-3',4'-DIOXATRIETHYLPHOSPHORANE]
IC50 HCT-116 [2]: 47 µg/mL and 46 µg/mL
IC50 HCT/VM [3]: 56 µg/mL and 45 µg/mL
IC50 HCT/VP [4]: 108 µg/mL and 89 µg/mL
IC50 Moser [5]: 64 µg/mL and 85 µg/mL
Average Weight Change [6, 10]: -0.7
Maximum Effect % T/C [6, 10]: > 544 % T/C
activity against B16 melanoma (prolongation of survival) ([7]; B16 melanoma implanted subcutaneously, i.p. dosage): active
% T/C ([7]; i.p. dosage, 40 mg/kg): 145%

COc1cc([C@@H]2c3cc4c(cc3[C@@H](O[C@@H]3O[C@@H]5CO[C@@H](C)O[C@H]5[C@H](O)[C@H]3O)[C@H]3COC(=O)[C@H]23)OCO4)cc2c1OP(CCC#N)(CCC#N)(CCC#N)O2 [Example 3, Etoposide-3',4'-Dioxa-Tris-(2-Cyanoethyl)Phosphorane]
IC50 B16-F10 [8]: 20 µg/mL and 22 µg/mL
IC50 HCT-116 [2]: 15.6 µg/mL and 14.3 µg/mL
IC50 HCT/VM [3]: 35 µg/mL and 56 µg/mL
IC50 HCT/VP [4]: 64 µg/mL and 99 µg/mL
IC50 Moser [5]: 105 µg/mL and 79 µg/mL
IC50 M109 [9]: 54 µg/mL and 56 µg/mL
effectiveness relative to etoposide (% T/C) [6]: Greater effectiveness
Average Weight Change [6, 11]: +3.2
Maximum Effect % T/C [6, 11]: 285 % T/C

Etoposide-Bis-(2-Chloroethyl)Phosphate, Mixture of 3' and 4'Regioisomers [Example 4]
IC50 B16-F10 [8]: 13.1 µg/mL and 20.7 µg/mL
IC50 HCT/VM [3]: 63 µg/mL and 82 µg/mL
IC50 HCT/VP [4]: 203 µg/mL and 168 µg/mL
IC50 Moser [5]: 84 µg/mL
IC50 M109 [9]: > 125 µg/mL and 97 µg/mL
Average Weight Change [6, 10]: +0.2
Maximum Effect % T/C [6, 10]: 150 % T/C

COc1cc([C@@H]2c3cc4c(cc3[C@@H](O[C@@H]3O[C@@H]5CO[C@@H](C)O[C@H]5[C@H](O)[C@H]3O)[C@H]3COC(=O)[C@H]23)OCO4)cc2c1OP(C)(CO)(CO)O2 [Example 2]
IC50 B16-F10 [8]: 21 µg/mL and 30 µg/mL
IC50 HCT-116 [2]: 9.8 µg/mL and 10.6 µg/mL
IC50 HCT/VP [4]: 74 µg/mL and 80 µg/mL
IC50 Moser [5]: 74 µg/mL and 70 µg/mL
IC50 M109 [9]: 76 µg/mL and 71 µg/mL
effectiveness relative to etoposide (% T/C) [6]: Greater effectiveness
Average Weight Change [6, 12]: +2.6
Maximum Effect % T/C [6, 12]: 305 % T/C

COc1cc([C@@H]2c3cc4c(cc3[C@@H](O[C@@H]3O[C@@H]5CO[C@@H](C)O[C@H]5[C@H](O)[C@H]3O)[C@H]3COC(=O)[C@H]23)OCO4)cc(OC)c1O [Etoposide, reference compound]
IC50 B16-F10 [8]: 1.9 µg/mL (≈ 3.23 µM)
IC50 B16-F10 ([8]; listed as etoposide): 9 to 12 µg/mL
IC50 HCT-116 [2]: 2.1 µg/mL and 2.7 µg/mL
IC50 HCT/VM [3]: 6.1 µg/mL and 3.1 µg/mL
IC50 HCT/VP [4]: 30 µg/mL and 41 µg/mL
IC50 Moser [5]: 38 µg/mL and 39 µg/mL
Average Weight Change [6, 13]: -1.9
Maximum Effect % T/C [6, 13]: > 450 % T/C
Average Weight Change [6, 14]: -0.4
Maximum Effect % T/C [6, 14]: > 573 % T/C
Average Weight Change [6, 15]: +2.1
Maximum Effect % T/C [6, 15]: 280 % T/C
% T/C ([7]; i.p., 100 mg/kg): > 177
activity in the treatment of cancers [1]: active
